The assay deals with T1, Histone-binding protein RBBP4/Histone-lysine N-methyltransferase EZH2/Polycomb protein EED [40-441]/Polycomb protein SUZ12 (Homo sapiens, UniProt O75530+Q09028+Q15022+Q15910).
T1 construct: 40-441
Briefly: TR-FRET Assay. The protocol:
The TR-FRET method was used to measure the PRC2 enzyme activity. First, the enzyme was mixed with compounds at different concentrations and incubated for 30 min at room temperature. The biotin-labeled histone H3 peptide substrate and the cofactor S-adenosylmethionine (SAM) were added to initiate the enzymatic reaction. After reaction was performed at room temperature for 4 hour, Acceptor and Donor were added and incubated for half an hour. The multifunctional microplate reader EnVision (Perkin Elmer Inc.) was used to detect the fluorescence signal.
In general terms: TR-FRET usually uses a lanthanide donor and a delayed reading to cut background.

T1 sequence (Q15910 whole entry): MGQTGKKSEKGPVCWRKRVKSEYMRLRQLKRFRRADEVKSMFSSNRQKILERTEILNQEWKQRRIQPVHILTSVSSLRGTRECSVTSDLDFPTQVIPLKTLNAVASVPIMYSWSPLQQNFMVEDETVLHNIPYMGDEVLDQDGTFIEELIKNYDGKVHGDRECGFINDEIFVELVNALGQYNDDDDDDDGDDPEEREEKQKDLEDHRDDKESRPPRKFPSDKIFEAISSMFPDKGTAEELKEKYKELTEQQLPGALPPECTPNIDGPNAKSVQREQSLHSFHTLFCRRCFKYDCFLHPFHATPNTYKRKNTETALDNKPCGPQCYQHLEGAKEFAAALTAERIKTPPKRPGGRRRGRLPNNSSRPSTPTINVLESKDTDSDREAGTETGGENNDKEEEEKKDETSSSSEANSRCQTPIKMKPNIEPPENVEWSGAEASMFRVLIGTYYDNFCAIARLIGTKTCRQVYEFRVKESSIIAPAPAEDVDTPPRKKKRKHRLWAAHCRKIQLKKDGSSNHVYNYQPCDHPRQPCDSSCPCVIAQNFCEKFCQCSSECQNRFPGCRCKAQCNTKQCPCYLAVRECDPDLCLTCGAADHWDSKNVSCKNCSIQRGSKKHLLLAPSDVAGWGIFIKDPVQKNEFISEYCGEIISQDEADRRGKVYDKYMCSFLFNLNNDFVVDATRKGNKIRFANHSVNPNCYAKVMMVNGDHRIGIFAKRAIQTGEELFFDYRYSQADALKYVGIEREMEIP
T1 sequence (Q15022 whole entry): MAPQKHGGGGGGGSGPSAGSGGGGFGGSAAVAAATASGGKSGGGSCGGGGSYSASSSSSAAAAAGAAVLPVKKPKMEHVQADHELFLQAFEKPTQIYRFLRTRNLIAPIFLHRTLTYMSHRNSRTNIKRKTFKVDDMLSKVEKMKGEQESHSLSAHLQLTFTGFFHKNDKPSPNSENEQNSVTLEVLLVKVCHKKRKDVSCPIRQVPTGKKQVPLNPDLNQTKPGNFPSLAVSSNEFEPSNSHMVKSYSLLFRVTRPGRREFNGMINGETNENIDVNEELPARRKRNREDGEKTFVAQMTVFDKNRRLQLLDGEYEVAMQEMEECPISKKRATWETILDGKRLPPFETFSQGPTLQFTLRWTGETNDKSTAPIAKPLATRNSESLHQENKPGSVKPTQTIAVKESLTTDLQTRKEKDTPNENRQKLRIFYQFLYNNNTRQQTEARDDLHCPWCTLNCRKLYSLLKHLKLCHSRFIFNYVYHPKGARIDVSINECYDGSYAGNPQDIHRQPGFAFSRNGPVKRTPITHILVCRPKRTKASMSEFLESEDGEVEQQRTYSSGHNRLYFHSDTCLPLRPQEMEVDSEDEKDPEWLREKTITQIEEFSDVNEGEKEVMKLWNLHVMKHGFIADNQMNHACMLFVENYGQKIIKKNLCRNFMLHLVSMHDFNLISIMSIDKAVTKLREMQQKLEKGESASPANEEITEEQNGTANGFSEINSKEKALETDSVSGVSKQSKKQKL
T1 sequence (Q09028 whole entry): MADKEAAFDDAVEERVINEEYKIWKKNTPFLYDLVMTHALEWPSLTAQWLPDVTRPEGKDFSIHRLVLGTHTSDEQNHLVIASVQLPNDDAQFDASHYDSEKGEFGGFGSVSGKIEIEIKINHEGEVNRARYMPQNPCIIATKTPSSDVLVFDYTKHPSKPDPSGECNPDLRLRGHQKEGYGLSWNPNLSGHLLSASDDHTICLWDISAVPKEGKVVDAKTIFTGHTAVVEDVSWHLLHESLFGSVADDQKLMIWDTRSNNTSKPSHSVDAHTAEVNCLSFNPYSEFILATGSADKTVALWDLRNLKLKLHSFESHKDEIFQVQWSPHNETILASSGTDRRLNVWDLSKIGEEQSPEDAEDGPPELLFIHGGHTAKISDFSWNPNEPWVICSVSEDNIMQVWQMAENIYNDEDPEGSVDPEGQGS
T1 sequence (O75530 40-441): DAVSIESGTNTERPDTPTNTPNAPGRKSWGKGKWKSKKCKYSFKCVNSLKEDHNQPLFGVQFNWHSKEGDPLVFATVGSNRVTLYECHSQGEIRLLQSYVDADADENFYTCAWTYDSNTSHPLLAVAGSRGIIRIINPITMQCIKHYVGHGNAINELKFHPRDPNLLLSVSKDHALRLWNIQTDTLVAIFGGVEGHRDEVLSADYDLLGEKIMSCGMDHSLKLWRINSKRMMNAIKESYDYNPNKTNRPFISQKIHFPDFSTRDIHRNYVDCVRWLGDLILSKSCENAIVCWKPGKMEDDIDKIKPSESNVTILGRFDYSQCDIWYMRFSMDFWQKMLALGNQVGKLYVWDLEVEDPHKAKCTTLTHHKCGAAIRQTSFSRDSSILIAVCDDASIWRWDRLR

As to `O=C(Nc1ccc(Cl)cc1)N1CC=C(c2cnc(NCc3ccco3)n3cnnc23)CC1` [US11013745, Compound E-Y27], the IC50 (as a rule, the concentration at which inhibition is half-maximal) came to 92 nM.

`O=C(Nc1ccc(Cl)cc1)N1CC=C(c2cnc(NCc3c(F)ccc4c3CCO4)n3cnnc23)CC1` [US11013745, Compound E-Y38] yielded a 50% inhibitory concentration (IC50) of 58.5 nM.

The record behind these values is BindingDB's records for patent US11013745 (Shanghai Institute of Material Medica, Chinese Academy of …, 2021).
